Measurements taken from patent US20220348590A1, “CYCLOOXYGENASE-2 INHIBITORS AND USES THEREOF” (The Board Institute, Inc., priority 2019, published 2022).
In brackets after ≈: the same amount, converted by molar mass. Like-named read-outs stand apart in the source and are kept apart here.

Assays:
[1] = PBS Solubility (no DMSO); format: physicochemical; details: aqueous buffer, thermodynamic from solid, average
[2] = rat plasma protein binding (PPB) assay; format: in vitro ADME; details: average, read-out: Rat Plasma Protein Binding % Bound Avg (converted)
Procedure: (§1) We have adapted a previously reported cyclooxygenase enzymatic assay utilizing LCMS quantification of PGE2 as the product of COX-1 and COX2 catalyzed conversion of arachidonic acid to evaluate the binding properties of newly synthesized ligands [Cao, 2011]. These optimized and miniaturized (384-well plates) LCMS-based COX-1 and COX2 enzymatic assays enabled us to quickly evaluate newly synthesized ligands for COX2 binding affinity and selectivity vs COX-1. Using a shorter ligand-enzyme incubation time in the LCMS assay (2 minutes vs 10 minutes) also permitted us to prioritize ligands with faster binding kinetics. Considering the relatively slow on-rate kinetics of known coxibs, due to their 3-step binding mechanism [Marnett, 2009], we believe that optimizing this critical parameter will be key to the successful development of a COX2 PET tracer. Using these enzymatic assays, we have evaluated>200 newly synthesized ligands against COX2 and >20 ligands against COX-1. Another critical property necessary for a good PET radiotracer is to have low non-specific binding (NSB) to increase the free fraction and maximize the signal to noise ratio. This property can be evaluated using in-vitro protein binding assays, and we have now evaluated>50 newly synthesized ligands in mouse, rat and human plasma protein binding (PPB) assays as well as >15 ligands in a mouse brain protein binding (BPB) assay.

[3] = molecular target: T1, human recombinant COX2 (hCOX2) (UniProt P35354); experiment: LCMS-based COX2 enzymatic inhibition assay (PGE2 quantification); format: biochemical; design: COX2 2 minutes pge2/pge2d4 area ratio Avg; other: 2 minutes; readout pge2/pge2d4 area ratio; average; COX2 2 minutes pge2/pge2d4 area ratio Avg; LLE; average LLE; COX2 2 minutes pge2 area (counts) Avg; readout pge2 area (counts); other: 2 min; "ovine COX2 (oCOX2), human recombinant COX2 (hCOX2)"; details: for COX2 2 minutes pge2/pge2d4 area ratio Avg. LLE / COX2 2 minutes pge2 area (counts) Avg. LLE / COX2 10 minutes pge2 area (counts) Avg. LLE: average LLE; for IC50: average
T1 sequence (P35354 1-604): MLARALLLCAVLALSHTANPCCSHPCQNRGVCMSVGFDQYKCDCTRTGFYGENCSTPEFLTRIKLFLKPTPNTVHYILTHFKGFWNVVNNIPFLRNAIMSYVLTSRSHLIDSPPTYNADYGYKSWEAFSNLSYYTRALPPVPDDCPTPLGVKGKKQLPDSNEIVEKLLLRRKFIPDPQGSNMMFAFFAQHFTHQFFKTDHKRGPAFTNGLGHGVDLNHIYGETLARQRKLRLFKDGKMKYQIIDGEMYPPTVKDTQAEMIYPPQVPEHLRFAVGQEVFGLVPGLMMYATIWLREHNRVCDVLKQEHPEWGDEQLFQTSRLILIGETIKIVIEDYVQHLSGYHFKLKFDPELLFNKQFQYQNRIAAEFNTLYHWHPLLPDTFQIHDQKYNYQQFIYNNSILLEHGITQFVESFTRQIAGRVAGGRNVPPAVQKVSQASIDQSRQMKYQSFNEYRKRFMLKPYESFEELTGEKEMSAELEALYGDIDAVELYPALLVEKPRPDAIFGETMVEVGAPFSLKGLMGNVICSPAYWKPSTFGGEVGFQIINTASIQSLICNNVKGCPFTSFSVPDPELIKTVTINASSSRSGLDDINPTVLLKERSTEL
Procedure, shortened: (§2)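 PGE2 formed from arachidonic acid (final 5 μM, 2 min) was measured by LC-MS-MS against DMSO controls. Enzyme (oCOX-1 0.1 μg or hCOX2 0.2 μg) with hematin/epinephrine cofactors at pH 8.0 was given 10 min at 37 °C with compound first. Twelve-point curves run three times gave IC50.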

[4] = molecular target: T2, ovine COX-1 (oCOX-1) (Ovis aries, UniProt P05979); experiment: LCMS-based COX-1 enzymatic inhibition assay (PGE2 quantification); format: biochemical; details: for COX1 10 minutes pge2/pge2d4 area ratio Avg. LLE / COX1 10 minutes pge2 area (counts) Avg. LLE: average LLE
T2 construct: purchased Cayman Chemicals (Ann Arbor, Mich.)
T2 sequence (P05979 25-600): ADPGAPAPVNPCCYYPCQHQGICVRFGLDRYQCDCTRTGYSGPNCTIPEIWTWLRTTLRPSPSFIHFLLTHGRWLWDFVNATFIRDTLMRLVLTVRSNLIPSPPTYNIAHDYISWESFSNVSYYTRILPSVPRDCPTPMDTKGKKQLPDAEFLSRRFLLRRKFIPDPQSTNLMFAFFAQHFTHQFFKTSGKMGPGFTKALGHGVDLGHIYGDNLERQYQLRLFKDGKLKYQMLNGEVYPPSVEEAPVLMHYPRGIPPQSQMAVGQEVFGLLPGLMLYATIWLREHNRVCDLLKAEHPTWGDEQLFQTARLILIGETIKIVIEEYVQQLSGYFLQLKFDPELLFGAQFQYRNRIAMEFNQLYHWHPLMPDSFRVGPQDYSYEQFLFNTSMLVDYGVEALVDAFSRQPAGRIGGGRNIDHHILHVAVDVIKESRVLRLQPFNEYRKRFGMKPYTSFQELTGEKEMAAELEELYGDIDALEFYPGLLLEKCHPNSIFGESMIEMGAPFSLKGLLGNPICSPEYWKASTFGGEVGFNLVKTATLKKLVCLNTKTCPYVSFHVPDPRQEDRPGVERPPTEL
Procedure, shortened: as §2

[5] = Rat Plasma Protein Stability (% Remaining); format: in vitro ADME; details: average
[6] = mouse plasma protein binding (PPB) assay; format: in vitro ADME; details: average, read-out: Mouse Plasma Protein Binding % Bound Avg (converted)
Procedure: as §1

[7] = Mouse Plasma Protein Stability (% Remaining); format: in vitro ADME; details: average
[8] = Human Microsome Stability; format: in vitro ADME; details: human microsomes
[9] = 2 minutes, readout pge2/pge2d4 area ratio
[10] = 2 minutes, readout pge2/pge2d4 area ratio, read-out: COX2 2 minutes pge2/pge2d4 area ratio Avg. IC50
[11] = 2 minutes, readout pge2 area (counts)
[12] = 2 minutes, readout pge2 area (counts), read-out: COX2 2 minutes pge2 area (counts) Avg. IC50
[13] = 10 minutes, readout pge2/pge2d4 area ratio
[14] = 10 minutes, readout pge2/pge2d4 area ratio, average, read-out: COX1 10 minutes pge2/pge2d4 area ratio Avg. IC50
[15] = 10 minutes, readout pge2 area (counts)
[16] = 10 minutes, readout pge2 area (counts), average, read-out: COX1 10 minutes pge2 area (counts) Avg. IC50
[17] = 10 minutes, readout pge2 area (counts), read-out: COX2 10 minutes pge2 area (counts) Avg. IC50

Row | Compound | solubility [1] | fraction unbound [2] | COX2 2 minutes pge2/pge2d4 area ratio Avg. LLE [3, 9] | IC50 [3, 10] | COX2 2 minutes pge2 area (counts) Avg. LLE [3, 11] | IC50 [3, 12] | COX1 10 minutes pge2/pge2d4 area ratio Avg. LLE [4, 13] | IC50 [4, 14] | COX1 10 minutes pge2 area (counts) Avg. LLE [4, 15] | IC50 [4, 16] | Rat Plasma Protein Stability % Remaining Avg [5] | fraction unbound [6] | Mouse Plasma Protein Stability % Remaining Avg [7] | IC50 [4] | COX2 10 minutes pge2 area (counts) Avg. LLE [3, 15] | IC50 [3, 17] | Human Microsome Stability % Remaining Avg [8]
1 | CS(=O)(=O)c1ccc(-c2cncc(SCc3ccoc3)n2)cc1 [Compound 12] | 7.4 µM (≈ 2.56 µg/mL) | 0.006 | 5.445 | 8.44 nM | 5.417 | 9.78 nM | 1.784 | 38500 nM | 1.801 | 37700 nM | 95% |  |  |  |  |  | 
2 | NS(=O)(=O)c1ccc(-c2cncc(OCc3cccs3)n2)cc1 [Compound 3] | 8.5 µM (≈ 2.95 µg/mL) |  | 6.484 | 5.55 nM | 6.512 | 5.38 nM | 4.28 | 1100 nM | 4.323 | 913 nM |  | 0.015 | 94.9% |  |  |  | 
3 | CCOc1ncc(NCc2cccs2)nc1-c1ccc(S(C)(=O)=O)cc1 [Compound 25] |  |  | 5.041 | 11.8 nM | 4.857 | 19.6 nM | 1.374 |  | 1.374 |  |  | 0.015 | 93.1% | 52000 nM |  |  | 
4 | CN(Cc1cccs1)c1cncc(-c2ccc(S(C)(=O)=O)cc2)n1 [Compound 51] |  |  | 5.185 | 23.9 nM | 5.211 | 23.2 nM | 3.094 | 2930 nM | 3.234 | 2230 nM |  | 0.015 | 109.5% |  | 6.088 | 3.57 nM | 
5 | COc1cc(NCc2cccs2)cc(-c2ccc(S(C)(=O)=O)cc2)n1 [Compound 32] |  |  | 4.433 | 15.5 nM | 4.493 | 14 nM |  |  |  |  |  | 0.015 | 100.9% |  | 5.338 | 2.5 nM | 
6 | Cc1ccsc1CNc1cccc(-c2ccc(S(C)(=O)=O)cc2)n1 [Compound 7] |  |  | 4.522 | 6.36 nM | 4.509 | 7.11 nM | 0.564 |  | 0.564 |  |  | 0.015 | 97.8% | 52000 nM |  |  | 
7 | C[C@H](Oc1cncc(-c2ccc(S(C)(=O)=O)cc2)n1)c1cccs1 (single isomer, unassigned) [Compound 53] |  |  | 4.852 | 25 nM | 4.799 | 27.6 nM | 2.125 | 8610 nM | 2.0112 | 11700 nM |  | 0.001 | 36.7% |  |  |  | 
8 | CS(=O)(=O)c1ccc(-c2ccc3ccn(Cc4ccoc4)c3n2)cc1 [Compound 26] |  |  | 3.778 | 12 nM | 3.652 | 16.6 nM | 0.9493 | 11400 nM | 0.6431 | 16700 nM |  | 0.018 | 97.5% |  |  |  | 43%
9 | CS(=O)(=O)c1ccc(-c2cncc(SCc3cccs3)n2)cc1 [Compound 18] |  |  | 4.93 | 9.99 nM | 5.018 | 8.22 nM | 2.392 | 3140 nM | 2.308 | 4430 nM |  | 0.002 | 103.7% |  |  |  | 
